Assay results published in patent US20100298141A1, “SUBSTITUTED PYRIDINE N-OXIDE HERBICIDES” (E. I. DU PONT DE NEMOURS AND COMPANY, priority 2007, published 2010).

Key:
[1] = tested on: velvetleaf; experiment: Test C pre-/postemergence test; assay type: in vivo, Abutilon theophrasti; settings: Preemergence
Procedure, shortened: (§1)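 Test chemicals were formulated with surfactant in a non-phytotoxic solvent and sprayed both on freshly planted seeds (preemergence) and on 1- to 4-leaf plants of 2–18 cm (postemergence). Flooded-paddy pots received compound directly into 3 cm of standing water, maintained for the test.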

[2] = tested on: woolly cupgrass; experiment: Test C pre-/postemergence test; assay type: in vivo, Eriochloa villosa; settings: Preemergence
Procedure, shortened: as §1

[3] = tested on: morningglory; experiment: Test A pre-/postemergence greenhouse test; assay type: in vivo, Ipomoea spp.; settings: for Morningglory plant response rating: 0 to 100 scale
Procedure, shortened: (§2)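 Untreated controls served as the reference for visual injury ratings taken about ten days after spraying. The non-phytotoxic solvent/surfactant formulation was applied preemergence to seeded loam and sand and postemergence to plants two to ten cm high.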

[4] = tested on: wheat; experiment: Test A pre-/postemergence greenhouse test; assay type: in vivo, Triticum aestivum; settings: for Wheat plant response rating: 0 to 100 scale
Procedure, shortened: as §2

[5] = tested on: Surinam grass; experiment: Test C pre-/postemergence test; assay type: in vivo, Brachiaria decumbens; settings: Preemergence
Procedure, shortened: as §1

[6] = tested on: giant foxtail; experiment: Test C pre-/postemergence test; assay type: in vivo, Setaria faberii; settings: Preemergence
Procedure, shortened: as §1

[7] = tested on: downy brome; experiment: Test C pre-/postemergence test; assay type: in vivo, Bromus tectorum
Procedure, shortened: as §1

[8] = tested on: common (oilseed) sunflower; experiment: Test C pre-/postemergence test; assay type: in vivo, Helianthus annuus; settings: Preemergence
Procedure, shortened: as §1

[9] = tested on: cocklebur; experiment: Test C pre-/postemergence test; assay type: in vivo, Xanthium strumarium
Procedure, shortened: as §1

[10] = tested on: blackgrass; experiment: Test C pre-/postemergence test; assay type: in vivo, Alopecurus myosuroides
Procedure, shortened: as §1

[11] = tested on: lambsquarters; experiment: Test C pre-/postemergence test; assay type: in vivo, Chenopodium album; settings: Preemergence
Procedure, shortened: as §1

[12] = tested on: catchweed bedstraw; experiment: Test C pre-/postemergence test; assay type: in vivo, Galium aparine; settings: Preemergence
Procedure, shortened: as §1

[13] = tested on: wild oat; experiment: Test C pre-/postemergence test; assay type: in vivo, Avena fatua; settings: Preemergence
Procedure, shortened: as §1

[14] = tested on: redroot pigweed; experiment: Test A pre-/postemergence greenhouse test; assay type: in vivo, Amaranthus retroflexus; settings: for Pigweed plant response rating: 0 to 100 scale
Procedure, shortened: as §2

[15] = tested on: kochia; experiment: Test C pre-/postemergence test; assay type: in vivo, Kochia scoparia; settings: Preemergence
Procedure, shortened: as §1

[16] = tested on: eastern black nightshade; experiment: Test C pre-/postemergence test; assay type: in vivo, Solanum ptycanthum; settings: Preemergence
Procedure, shortened: as §1

[17] = tested on: common ragweed; experiment: Test C pre-/postemergence test; assay type: in vivo, Ambrosia elation; settings: Preemergence
Procedure, shortened: as §1

[18] = tested on: wheat; experiment: Test C pre-/postemergence test; assay type: in vivo, Triticum aestivum; settings: Preemergence
Procedure, shortened: as §1

[19] = tested on: giant foxtail; experiment: Test A pre-/postemergence greenhouse test; assay type: in vivo, Setaria faberi; settings: for Foxtail, Giant plant response rating: 0 to 100 scale
Procedure, shortened: as §2

[20] = 31 g ai/ha, scale 0 to 100 (0 no effect, 100 complete control)
[21] = Postemergence, 125 g ai/ha, 0 is no effect, 100 is complete control
[22] = Postemergence, 500 g ai/ha, 0 is no effect, 100 is complete control
[23] = Preemergence, 125 g ai/ha, 0 no effect, 100 complete control
[24] = Preemergence, 500 g ai/ha, 0 to 100 scale where 0 is no effect and 100 is complete control
[25] = 62 g ai/ha, Preemergence, scale 0 to 100
[26] = Preemergence, 31 g ai/ha, scale 0 to 100 (0 no effect, 100 complete control)
[27] = preemergence, 125 g ai/ha, scale 0 (no effect) to 100 (complete control)

Cn1nc(C(F)(F)F)c(C[S+]([O-])c2cc(C(C)(C)C)cc[n+]2[O-])c1OC(F)F (racemic) [Compound 24]
55: Plant response rating, Velvetleaf [1, 20]
90: Morningglory plant response rating [3, 22] | Plant response rating, Morningglory [3, 24] | Plant response rating, Wheat [4, 24] | Foxtail, Giant plant response rating ([6]; 62 g ai/ha, scale 0 to 100)
85: Plant response rating, Lambsquarters [11, 20]
40: Plant response rating, Cupgrass, Woolly [2, 20] | Morningglory plant response rating [3, 21] | Surinam Grass plant response rating ([5]; 62 g ai/ha, scale 0 to 100) | Wheat plant response rating ([18]; 62 g ai/ha, scale 0 to 100)
20: Plant response rating, Surinam Grass [5, 20] | Blackgrass plant response rating [10, 25] | Plant response rating, Blackgrass [10, 26] | Pigweed plant response rating [14, 21]
30: Wheat plant response rating [4, 22] | Foxtail, Giant plant response rating [19, 21]
60: Cupgrass, Woolly plant response rating ([2]; 62 g ai/ha, scale 0 to 100)
65: Plant response rating (0 to 100), Bromegrass, Downy ([7]; Preemergence, 250 g ai/ha)
70: Morningglory plant response rating [3, 23] | Plant response rating, Foxtail, Giant [6, 20] | Ragweed plant response rating ([17]; 62 g ai/ha, scale 0 to 100) | Foxtail, Giant plant response rating [19, 22]
80: Oat, Wild plant response rating ([13]; 62 g ai/ha, scale 0 to 100)
0: Wheat plant response rating [4, 21] | Sunflower plant response rating ([8]; 62 g ai/ha, scale 0 to 100) | Plant response rating, Sunflower [8, 20] | Cocklebur plant response rating [9, 25] | Plant response rating, Cocklebur [9, 26] | Cocklebur plant response rating [9, 27] | Plant response rating, Galium [12, 20] | Plant response rating, Kochia [15, 20] | Plant response rating, Ragweed [17, 20] | Plant response rating, Wheat [18, 20]
10: Plant response rating, Bromegrass, Downy [7, 26]
98: Galium plant response rating ([12]; 62 g ai/ha, scale 0 to 100)
100: Velvetleaf plant response rating ([1]; 62 g ai/ha, scale 0 to 100) | Plant response rating (0 to 100), Cupgrass, Woolly ([2]; 250 g ai/ha) | Plant response rating (0 to 100), Foxtail, Giant ([6]; 250 g ai/ha) | Plant response rating (0 to 100), Blackgrass ([10]; Preemergence, 250 g ai/ha) | Lambsquarters plant response rating ([11]; 62 g ai/ha, scale 0 to 100) | Plant response rating (0 to 100), Galium ([12]; 250 g ai/ha) | Pigweed plant response rating [14, 23] | Plant response rating, Pigweed [14, 24] | Nightshade plant response rating ([16]; 62 g ai/ha, scale 0 to 100) | Plant response rating, Nightshade [16, 20] | Foxtail, Giant plant response rating [19, 23] | Plant response rating, Foxtail, Giant [19, 24]
5: Kochia plant response rating ([15]; 62 g ai/ha, scale 0 to 100)
50: Wheat plant response rating [4, 23] | Bromegrass, Downy plant response rating [7, 25] | Bromegrass, Downy plant response rating [7, 27] | Blackgrass plant response rating [10, 27] | Plant response rating, Oat, Wild [13, 20] | Pigweed plant response rating [14, 22]
